Measurements: PMC7531004, “Discovery of gramicidin A analogues with altered activities by multidimensional screening of a one-bead-one-compound library” (Nature Communications, 2020)
“And” between values parts separate entries of the source, which are not always exact repeats. Equal values may be shown once. Read-outs that look alike come from different tables or passages of the source. Where a SMILES comes first, the peptide text is derived from it. [ ]: non-standard residue; d: D form. The star is where a group is joined. NHCH2CH2OH = OCCN*; For = O=C*

Tests used:
[1] = system: Streptococcus pyogenes SSI-9; assay: Antibacterial activity assay of bead-derived peptides (three concentrations); type: cell-based; parameters: key: +++: inhibition by the 640-fold diluted peptide solution; ++: inhibition by the 160-fold diluted solution; +: inhibition by the 40-fold diluted solution; -: no inhibition; details: S. pyogenes
Summary of the method: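 First, each peptide stock was diluted 4- and 16-fold in DMSO; next, the three solutions were mixed with S. pyogenes SSI-9 suspension (2 × 10^5 CFU) in cation-adjusted Mueller Hinton Broth plus 5% laked horse blood; finally, plates stood 18 h at 37 °C before checking for grown-cell precipitation.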

[2] = Description: (§1) Second, we examined the cytotoxicity toward mammalian cancer cells and hemolytic activity of 1. […] Hemolytic activity was evaluated by monitoring hemoglobin leakage from rabbit red blood cells as a consequence of membrane damage. The concentration of 1 required to cause 10% hemoglobin leakage (HC10) was 160 nM. Thus, the P388 cytotoxicity of 1 was 28-fold more sensitive than its hemolytic activity.
(§2) Mammalian cytotoxicity assay of purified peptides.
(§3) B22 was diluted with the growth medium with 2% DMSO to various concentrations as 5-fold serial dilution.
(§4) The collected cells were resuspended into
(§5) the growth medium at 2 × 10^4 cells/mL. Aliquots of the former medium (2% DMSO, 100 µL) containing
(§6) peptides and the latter medium containing P388 cells (100 µL) were mixed in a 96-well cell culture plate
(§7) (TR5003, TrueLine). The final concentration of P388 cells and DMSO were 1 × 10^4 cells/mL and 1%,
(§8) respectively. […]
(§9) were determined by WST -1 assay. A solution of 1-methoxy PMS and WST-1 in the growth medium
(§10) (1-methoxy PMS 0.70 mg/mL in Milli-Q/WST-1 3.6 mg/mL in pH 7.4 HEPES buffer = 1/9) was added to
(§11) each well of the plate (20.0 µL/well). The cells were incubated for 4 h under atmosphere of 5% CO 2 at
(§12) 37 °C. The absorbance of each well at 415 nm was measured using a Benchmark microplate reader
(§13) (Bio-Rad) or Thermo Scientifi c Multiskan GO (Thermo Fisher Scientific). The cytotoxicities of the purified
(§14) peptides were evaluated as IC 50 (nM) by means of three replicates. Sigmoidal curve fittings were performed

[3] = system: P388 mouse leukemia cell line; details: for IC50: 2 h
Description: as §1, §2, §3, §4, §5, §6, §7, §8, §9, §10, §11, §12, §13, §14

[4] = Membrane disruption assay of purified peptides (carboxyfluorescein leakage); type: biochemical; parameters: key: % lysis; Triton X-100 = 100%, DMSO = 0%; details: three replicate lines
Description: Membrane disruption assay of purified peptides. 5(6)-Carboxyfluorescein (CF)-encapsulated large […]
through Nuclepore polycarbonate filters mounted in the mini-extruder apparatus. A solution of egg yolk phosphatidylcholine (EYPC, 22.0 mg, 28.9 µmol) in CHCl3 (225 µL) and egg yolk phosphatidylglycerol (1.2 0 […]
mM HEPES, 100 mM NaCl, 20 mM CF) by sonication. After five -times freeze-thaw cycles, the lipid […]
concentration of the resultant CF -encapsulated LUV suspension was deduced from the phosphatidylcholine concentration determined by using Phospholipid C -Test Wako. The lipid concentration of the LUV […]
as 5-fold serial dilution. The solution of peptide (2.0 µL) and the CF-encapsulated LUV suspension (200 […]
The resultant suspension was incubated at room temperature for 30 min. The fluorescence (Ex. 490 nm/Em. 517 nm) of each well was measured on Gemini EM microplate reader. Triton X-100/H2O (5/95, 3.0 µL), DMSO (2.0 µL), and the LUV suspension were mixed in each plate to determine 100% lysis. […]
was used to determine 0% lysis. The membrane disruption activities of tested peptides ( I) were normalized against 100% lysis by Triton X-100 (Imax) and 0% lysis by DMSO ( I0) according to Supplementary Equation 2 , where Ix is the fluorescence intensity.
The membrane disruption activities of the purified peptides were plotted as means of three replicates (Supplementary Figure 1).

[5] = H+/Na+ transport assay of bead-derived peptides (one-point); type: biochemical; parameters: key: relative activity; mean of two control wells = 1.00; details: bead-derived peptide solution, EYPC/EYPG LUVs;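 also: relative to parent gramicidin A activity set to 1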
Summary of the method: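 Values are normalized fluorescence, with Triton X-100 defining 100% and untreated LUVs 0%, and the two control wells averaging 1.00. Vesicles carried 1.0 mM pyranine and included egg yolk phosphatidylglycerol. Peptides were incubated with them 30 min at room temperature.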

[6] = IC50, mammalian cytotoxicity assay

| Structure (SMILES) | antibacterial activity in the library screening [1] | IC50 [2, 6] [nM] | IC50 [3] [nM] | Supplementary Figure 1 dose-response value ([4]; concentration 0.000512 nM) | Supplementary Figure 1 dose-response value ([4]; concentration 0.00256 nM) | Supplementary Figure 1 dose-response value ([4]; concentration 0.0128 nM) | Supplementary Figure 1 dose-response value ([4]; concentration 0.064 nM) | Supplementary Figure 1 dose-response value ([4]; concentration 0.32 nM) | Supplementary Figure 1 dose-response value ([4]; concentration 1.6 nM) | Supplementary Figure 1 dose-response value ([4]; concentration 8 nM) | Supplementary Figure 1 dose-response value ([4]; concentration 40 nM) | Supplementary Figure 1 dose-response value ([4]; concentration 200 nM) | Supplementary Figure 1 dose-response value ([4]; concentration 1000 nM) | Supplementary Figure 1 dose-response value ([4]; concentration 5000 nM) | H+/Na+ transport activity normalized against the value of 1 (1.00) [5] | antibacterial activity ([1]; bead-derived peptide solution, three concentrations) | IC50 ([2]; cytotoxicity against P388 cells/IC50) [nM] | IC99.6 value (threshold concentration of one-point cytotoxicity assay) [3] [nM] | P388 cytotoxicity more sensitive than hemolytic activity [3] [fold] |
| --- | --- | --- | --- | --- | --- | --- | --- | --- | --- | --- | --- | --- | --- | --- | --- | --- | --- | --- | --- |
| CC(C)C[C@@H](NC(=O)[C@H](C)NC(=O)[C@H](NC(=O)[C@H](C)NC(=O)CNC(=O)[C@@H](NC=O)C(C)C)[C@H](C)O)C(=O)N[C@H](C(=O)N[C@H](CC(C)C)C(=O)N[C@@H](Cc1c[nH]c2ccccc12)C(=O)N[C@@H](C(=O)N[C@@H](Cc1c[nH]c2ccccc12)C(=O)N[C@H](CC(C)C)C(=O)N[C@@H](Cc1c[nH]c2ccccc12)C(=O)N[C@@H](C(=O)N[C@@H](Cc1c[nH]c2ccccc12)C(=O)NCCO)C(C)C)[C@H](C)O)C(C)C [B21] (For-VGA[dT]A[dL]V[dL]W[dT]W[dL]W[dV]W-NHCH2CH2OH) | Neither of these peptides exhibited growth inhibition activity | > 1000 | > 1000 | 14.8974 and 5.3396 and 11.8083 | 18.072 and -2.382 and 0.726 | -1.184 and 8.357 and 7.1241 | -0.803 and 4.138 and 1.858 | 1.612 and 3.04 and 7.439 | 5.221 and -3.492 and 12.0075 | 15.0705 and 19.6578 and 20.2333 | 21.4059 and 19.6002 and 32.4332 | 39.5964 and 37.7798 and 25.5852 | 40.751 and 51.3594 and 47.003 | 73.5609 and 68.2985 and 59.7258 |  |  |  |  |  |
| CC(C)C[C@@H](NC(=O)[C@H](C)NC(=O)CNC(=O)[C@@H](NC=O)C(C)C)C(=O)N[C@@H](C)C(=O)N[C@@H](C(=O)N[C@H](C(=O)N[C@@H](C(=O)N[C@@H](Cc1c[nH]c2ccccc12)C(=O)N[C@H](CC(C)C)C(=O)N[C@@H](Cc1c[nH]c2ccccc12)C(=O)N[C@H](CC(C)C)C(=O)N[C@@H](Cc1c[nH]c2ccccc12)C(=O)N[C@H](CC(C)C)C(=O)N[C@@H](Cc1c[nH]c2ccccc12)C(=O)NCCO)C(C)C)C(C)C)C(C)C [compound 1, Gramicidin A] (For-VGA[dL]A[dV]V[dV]W[dL]W[dL]W[dL]W-NHCH2CH2OH) | ++ or + | 4.86 |  | 1.36 and 3.869 and -1.044 | 3.2 and 1.0665 and -1.239 | 3.406 and 6.277 and 1.505 | 4.522 and 0.6394 and 10.119 | 0.03727 and -1.4564 and 8.0175 | 1.309 and 1.672 and 5.415 | 11.9937 and 6.964 and 7.105 | 14.5572 and 22.409 and 17.147 | 26.5638 and 29.1236 and 30.6096 | 36.4056 and 34.1405 and 30.0737 | 57.2698 and 45.8291 and 46.6701 | 1.07 | - | 5.81 ± 0.99 | 30 | 28 |
| CNC(=O)C[C@@H](NC(=O)[C@@H](NC(=O)[C@@H](CC(C)C)NC(=O)[C@H](C)NC(=O)[C@@H](CC(C)C)NC(=O)[C@H](C)NC(=O)CNC(=O)[C@@H](NC=O)C(C)C)C(C)C)C(=O)N[C@@H](Cc1c[nH]c2ccccc12)C(=O)N[C@H](CC(C)C)C(=O)N[C@@H](Cc1c[nH]c2ccccc12)C(=O)N[C@H](CC(C)C)C(=O)N[C@@H](Cc1c[nH]c2ccccc12)C(=O)N[C@@H](C(=O)N[C@@H](Cc1c[nH]c2ccccc12)C(=O)NCCO)[C@H](C)O [B22] (For-VGA[dL]A[dL]V[dD](NHMe)W[dL]W[dL]W[dT]W-NHCH2CH2OH) | Neither of these peptides exhibited growth inhibition activity | > 1000 | > 1000 | 5.233 and 5.708 and 3.745 | 6.399 and 0.9122 and 2 | 2.405 and 9.3526 and 2.534 | 4.116 and 2.091 and 9.6371 | 3.439 and -1.283 and 7.2259 | 12.4052 and 7.371 and 12.8868 | 24.0812 and 19.193 and 19.2236 | 21.9455 and 34.569 and 23.6152 | 30.6863 and 31.8474 and 39.9799 | 57.1747 and 48.6012 and 49.2408 | 70.9515 and 65.7371 and 71.376 |  |  |  |  |  |
